This passage reports TGI results from PubChem BioAssay (NCI).

Test systems include NCI-H226 lung; U251 CNS; MOLT-4 leukemia; SR leukemia; SN12C renal; COLO 205 colon; NCI-H522 lung; NCI/ADR-RES ovarian; RXF 393 renal.
Holding throughout (assay): growth of human tumour cells (NCI), 48 h

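All cell lines were grown in 96-well plates and treated with compound for 48 hours. At the TGI there is no net growth.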

Take `N#CNC(N)=NCc1ccccc1`: the TGI in the experiment on NCI-H226 lung, with U251 CNS, in the experiment on MOLT-4 leukemia, in the experiment with SR leukemia, with SN12C renal and in the experiment with COLO 205 colon was > 100 µM each time. Besides, the TGI in the experiment on NCI-H522 lung was > 100 µM.

With `Cc1cc([N+](=O)[O-])c(C)c2c1[nH]c1ccc(Cl)cc12`, the TGI was > 100 µM in the experiment with NCI-H226 lung; > 100 µM in the experiment with MOLT-4 leukemia; > 100 µM in the experiment with SR leukemia; > 100 µM in the experiment with SN12C renal; > 100 µM with COLO 205 colon; 46 µM in the experiment on NCI-H522 lung.

Take `CN(C)CCNC(=O)c1cccc2c1Nc1ccccc1S2`: the TGI came to 32.6 µM with NCI/ADR-RES ovarian; 16.8 µM in the experiment on NCI-H226 lung; 26.9 µM in the experiment with U251 CNS; 23.6 µM in the experiment with RXF 393 renal; 29.5 µM in the experiment with MOLT-4 leukemia; 26.1 µM in the experiment with SN12C renal. The same compound had a TGI in the experiment with COLO 205 colon of 25.8 µM.

Consider `CN(C)c1nc(Oc2nc(N(C)C)nc(N(C)C)n2)nc(N(C)C)n1`, for which the TGI in the experiment on NCI-H226 lung, in the experiment with U251 CNS, in the experiment with RXF 393 renal, with MOLT-4 leukemia, in the experiment with SR leukemia and in the experiment on SN12C renal was > 100 µM each time. Also, the TGI in the experiment with COLO 205 colon and in the experiment on NCI-H522 lung was > 100 µM each time.

Take `CCOC(=O)C1C(c2ccc(Cl)cc2Cl)NC(c2ccc(C)cc2)C(C(=O)OC)S1(=O)=O` (stereo not drawn): the TGI in the experiment on NCI-H226 lung, in the experiment on U251 CNS, in the experiment on RXF 393 renal, with MOLT-4 leukemia, with SR leukemia and in the experiment on COLO 205 colon was > 100 µM each time. Further, the TGI in the experiment with NCI-H522 lung is > 100 µM.

`COc1cc2ccc3c4cc(OC)c(OC)cc4c[n+](C)c3c2cc1O`: the TGI with NCI-H226 lung was > 100 µM; with U251 CNS it was > 87.9 µM; in the experiment with RXF 393 renal, > 100 µM; in the experiment on MOLT-4 leukemia, > 100 µM; with SN12C renal, 43 µM; in the experiment with COLO 205 colon, > 100 µM. Further, the TGI with NCI-H522 lung is 78.7 µM.

For the compound `COc1ccc(CNc2cnc3ccc(N)cc3n2)cc1`, the TGI was > 100 µM in the experiment with NCI-H226 lung; > 100 µM in the experiment on MOLT-4 leukemia; > 100 µM in the experiment on SN12C renal; 34.6 µM in the experiment on COLO 205 colon; > 100 µM in the experiment with NCI-H522 lung.

`CCCCCCCC(=O)OCC(COC(=O)C(C)(C)C)OC(=O)Cc1ccccc1` (stereo not drawn): the TGI in the experiment on NCI-H226 lung, in the experiment on U251 CNS, in the experiment on MOLT-4 leukemia, in the experiment on SN12C renal and in the experiment with COLO 205 colon was > 100 µM each time.

For `Cc1c(N2CCOCC2)nc2ccc(Cl)cc2c1-c1ccccc1`, the TGI in the experiment with U251 CNS, in the experiment on RXF 393 renal, in the experiment on MOLT-4 leukemia, in the experiment on SR leukemia, in the experiment with SN12C renal and in the experiment with COLO 205 colon was > 100 µM each time. The TGI in the experiment with NCI-H522 lung is > 100 µM.

For `CC1=NN(C(=O)Cc2ccccc2)C(=O)/C1=C\c1ccc(O)cc1`, the TGI with NCI-H226 lung, in the experiment with U251 CNS, in the experiment with RXF 393 renal, in the experiment on MOLT-4 leukemia, in the experiment with SN12C renal and with COLO 205 colon was > 100 µM in each case. Also, in the experiment with NCI-H522 lung, the TGI is > 100 µM.

On to `COc1cc(C)c(CC/C(C)=C/Cc2cc(O)ccc2O)c(C)c1C`, for which the TGI in the experiment with NCI-H226 lung, in the experiment on U251 CNS, in the experiment with RXF 393 renal, with MOLT-4 leukemia, in the experiment with SR leukemia and in the experiment on SN12C renal was > 25 µM in each case. The TGI in the experiment with COLO 205 colon and in the experiment with NCI-H522 lung was > 25 µM in each case.

For the compound `CC(=O)NNc1nc(C)c(C(=O)NNC(=O)C(=O)Nc2ccc([N+](=O)[O-])cc2[N+](=O)[O-])s1`, the TGI in the experiment with NCI-H226 lung, in the experiment with U251 CNS, with RXF 393 renal, with MOLT-4 leukemia, with SR leukemia and in the experiment with SN12C renal was > 100 µM in each case. Further, the TGI with COLO 205 colon and in the experiment on NCI-H522 lung was > 100 µM in each case.

As for `O=[N+]([O-])c1ccc(C[P+]2(c3ccccc3)CCCCC2)cc1`, the TGI in the experiment with NCI-H226 lung, in the experiment with U251 CNS, in the experiment with RXF 393 renal, in the experiment with MOLT-4 leukemia, with SR leukemia and in the experiment on SN12C renal was > 100 µM throughout. Also, the TGI in the experiment on COLO 205 colon and in the experiment on NCI-H522 lung was > 100 µM in each case.

With `C[C@]12CCC3[C@@H](CCC45OC4C(=O)CC[C@]35C)C1Cc1cnn(-c3ccc(F)cc3)c1N2` (stereo partly drawn), the TGI was > 100 µM with NCI-H226 lung; 98 µM in the experiment with U251 CNS; 87.2 µM in the experiment with RXF 393 renal; 94.7 µM in the experiment on MOLT-4 leukemia; > 100 µM in the experiment on SR leukemia; 48.4 µM with SN12C renal. Moreover, the TGI in the experiment with COLO 205 colon was > 100 µM; with NCI-H522 lung, 34.8 µM.
